Test results from patent US20220226341A1, “Pharmaceutical Composition for Alzheimer's Disease” (Kyoto University, priority 2019, published 2022).

How the values were obtained:
[1] = system: Human Herpesvirus Type 7 (HHV-7); test: Antiviral test against HHV-7 in Sup-T1 cells, TaqMan PCR; format: cell-based
Procedure: [Antiviral Test Against HHV-7]
An antiviral test against HHV-7 using Compound 1 was performed by the following procedure.
Virus strain: Human Herpesvirus Type 7 (HHV-7)
Medium: RPMI-1640+10% FBS+1% penicillin/streptomycin
Detection method: TaqMan PCR
Sup-T1 cells were cultured at a concentration of 1×10^6/ml, Compound 1, 10 μM, was added, and one hour after, HHV-7 virus (1×10^4 infectious units) were sensitized (or unsensitized cells were prepared as a negative control).
After culturing at 37° C. for two hours, the medium was replaced, and Compound 1 was added again. Five days after, 500 μl of the medium was sampled, and HHV-7 virus was quantified by TaqMan PCR. Statistical analysis was performed by Student's t-test.

[2] = target: CDK9/CycT1 (Homo sapiens, UniProt P50750); test: CDK9 inhibitory activity, Off-chip Mobility Shift Assay (MSA); format: biochemical; conditions: room temperature, one hour, read-out: IC50 value with respect to CDK9/CycT1
Sequence of CDK9/CycT1 (P50750 whole entry): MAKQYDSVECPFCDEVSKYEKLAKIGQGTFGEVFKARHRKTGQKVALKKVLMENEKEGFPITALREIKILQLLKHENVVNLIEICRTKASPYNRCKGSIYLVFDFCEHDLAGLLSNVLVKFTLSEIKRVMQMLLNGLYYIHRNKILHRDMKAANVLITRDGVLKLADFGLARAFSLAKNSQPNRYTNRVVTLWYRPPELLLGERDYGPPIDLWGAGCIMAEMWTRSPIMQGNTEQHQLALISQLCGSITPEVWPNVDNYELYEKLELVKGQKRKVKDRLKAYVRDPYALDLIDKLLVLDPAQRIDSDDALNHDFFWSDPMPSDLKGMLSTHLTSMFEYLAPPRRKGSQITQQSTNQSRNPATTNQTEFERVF
Sequence of CDK9/CycT1 (O60563 whole entry partner): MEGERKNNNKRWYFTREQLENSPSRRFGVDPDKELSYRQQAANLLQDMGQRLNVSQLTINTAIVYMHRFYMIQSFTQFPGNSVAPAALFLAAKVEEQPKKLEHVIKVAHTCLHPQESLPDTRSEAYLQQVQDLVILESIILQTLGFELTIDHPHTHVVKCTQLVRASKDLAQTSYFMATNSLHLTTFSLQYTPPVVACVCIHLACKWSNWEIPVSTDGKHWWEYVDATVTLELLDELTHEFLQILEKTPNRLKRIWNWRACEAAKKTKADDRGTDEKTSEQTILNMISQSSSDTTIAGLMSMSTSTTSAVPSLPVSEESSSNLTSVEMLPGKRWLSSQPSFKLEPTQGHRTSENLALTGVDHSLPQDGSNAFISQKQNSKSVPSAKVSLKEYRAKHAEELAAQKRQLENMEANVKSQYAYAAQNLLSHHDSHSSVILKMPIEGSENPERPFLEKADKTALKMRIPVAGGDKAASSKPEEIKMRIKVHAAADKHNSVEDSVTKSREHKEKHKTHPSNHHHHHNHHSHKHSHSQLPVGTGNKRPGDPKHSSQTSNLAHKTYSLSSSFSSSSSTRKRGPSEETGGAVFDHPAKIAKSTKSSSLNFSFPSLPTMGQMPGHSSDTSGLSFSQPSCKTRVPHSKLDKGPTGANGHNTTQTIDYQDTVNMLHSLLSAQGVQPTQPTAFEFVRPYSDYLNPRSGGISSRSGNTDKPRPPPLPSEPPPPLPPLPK
Procedure: [Assay of CDK9 Inhibitory Activity]
The tests for confirming CDK9 inhibitory activity were carried out by the following procedure according to Off-chip Mobility Shift Assay (MSA).
A substrate/ATP/metal solution (4×) was prepared with use of a kit buffer (20 mM HEPES, 0.01% Triton X-100, 5 mM DTT, pH7.5). A kinase solution (2×) was prepared with use of an assay buffer.
2) The test substance solutions, the substrate/ATP/metal solution, and the kinase solution were mixed in wells of a polypropylene plate, and were caused to react at room temperature for one hour.
3) A termination buffer (QuickScout Screening Assist MSA; Cama Biosciences Inc.)
was added thereto to stop the reaction.
4) Substrate peptides and phosphorylated peptides in the reaction solutions were separated and quantified in LabChip™ System (PerkinElmer Co., Ltd.).
5) Kinase reaction activities were evaluated based on a product ratio (P/(P+S)) calculated from a peak height of the substrate peptide (S) and a peak height of the phosphorylated peptide (P).

[3] = Tissue distribution of radioactivity after single intravenous administration of 14C-labeled Compound 1 (blood-brain barrier penetration); format: in vivo; conditions: rats, single iv 5 mg/kg 14C-labeled, n = 3
Procedure: [Testing the Penetration of the Compound Through the Blood-Brain Barrier]
Brain permeability (intracerebral transferability) of Compound 1 was evaluated.
^14C-labeled Compound 1 was intravenously administered once in a dose of 5 mg/kg (3.52 MBq/kg) to rats, and histological distribution (biodistribution) thereof was studied.

In the case of Fc1ccc(N2CCCCC2)c(NC(=S)c2ccncc2)c1 [Compound 1], the “Effect of suppressing growth of HHV-7” value ([1]; 10 μM, in words) is reported as “effect of suppressing growth of HHV-7 was confirmed”, the HHV-7 copy number ([1]; Compound 1 10 μM, medium sampled five days after, TaqMan PCR) is reported as 1844.89 and the IC50 [2] is reported as 5.8 µM. For the same molecule, the Radioactivity concentration ([3]; Adrenal gland, 5 min) was 47334.91 ng eq. of Compound 1/g or mL, the Radioactivity concentration ([3]; Adrenal gland, 6 h) was 1517.3 ng eq. of Compound 1/g or mL and the Radioactivity concentration ([3]; Adrenal gland, 24 h) was 195.16 ng eq. of Compound 1/g or mL. The Radioactivity concentration ([3]; Adrenal gland, 72 h) was 23.21 ng eq. of Compound 1/g or mL, the Radioactivity concentration ([3]; Aorta, 5 min) was 1995.27 ng eq. of Compound 1/g or mL and the Radioactivity concentration ([3]; Aorta, 6 h) was 730.03 ng eq. of Compound 1/g or mL. The Radioactivity concentration ([3]; Aorta, 24 h) was 76.22 ng eq. of Compound 1/g or mL, the Radioactivity concentration ([3]; Bonemarrow, 5 min) was 6109.89 ng eq. of Compound 1/g or mL and the Radioactivity concentration ([3]; Bonemarrow, 6 h) was 900.75 ng eq. of Compound 1/g or mL. The Radioactivity concentration ([3]; Bonemarrow, 24 h) was 106.7 ng eq. of Compound 1/g or mL, the Radioactivity concentration ([3]; Brown fat, 5 min) was 8467.9 ng eq. of Compound 1/g or mL and the Radioactivity concentration ([3]; Brown fat, 6 h) was 6412.21 ng eq. of Compound 1/g or mL. The Radioactivity concentration ([3]; Brown fat, 24 h) was 217.43 ng eq. of Compound 1/g or mL, the Radioactivity concentration ([3]; Brown fat, 72 h) was 11.3 ng eq. of Compound 1/g or mL and the Radioactivity concentration ([3]; Cecum, 5 min) was 5555.55 ng eq. of Compound 1/g or mL. For the same molecule, the Radioactivity concentration ([3]; Cecum, 6 h) was 3979.48 ng eq. of Compound 1/g or mL, the Radioactivity concentration ([3]; Epididymis, 5 min) was 2568.88 ng eq. of Compound 1/g or mL and the Radioactivity concentration ([3]; Epididymis, 6 h) was 1809.29 ng eq. of Compound 1/g or mL. For the same molecule, the Radioactivity concentration ([3]; Epididymis, 24 h) was 312.66 ng eq. of Compound 1/g or mL, the Radioactivity concentration ([3]; Epididymis, 72 h) was 21.99 ng eq. of Compound 1/g or mL and the Radioactivity concentration ([3]; Eyeball, 5 min) was 1785.93 ng eq. of Compound 1/g or mL. The Radioactivity concentration ([3]; Eyeball, 6 h) was 960.39 ng eq. of Compound 1/g or mL, the Radioactivity concentration ([3]; Eyeball, 24 h) was 117.64 ng eq. of Compound 1/g or mL and the Radioactivity concentration ([3]; Eyeball, 72 h) was 7.03 ng eq. of Compound 1/g or mL. For the same molecule, the Radioactivity concentration ([3]; Fat, 5 min) was 1181.88 ng eq. of Compound 1/g or mL, the Radioactivity concentration ([3]; Fat, 6 h) was 5031.8 ng eq. of Compound 1/g or mL and the Radioactivity concentration ([3]; Fat, 24 h) was 1665.35 ng eq. of Compound 1/g or mL. The Radioactivity concentration ([3]; Fat, 72 h) was 112.35 ng eq. of Compound 1/g or mL, the Radioactivity concentration ([3]; Harderian gland, 5 min) was 12633.83 ng eq. of Compound 1/g or mL and the Radioactivity concentration ([3]; Harderian gland, 6 h) was 1418.19 ng eq. of Compound 1/g or mL. For the same molecule, the Radioactivity concentration ([3]; Harderian gland, 24 h) was 131.47 ng eq. of Compound 1/g or mL, the Radioactivity concentration ([3]; Harderian gland, 72 h) was 8.95 ng eq. of Compound 1/g or mL and the Radioactivity concentration ([3]; Heart, 5 min) was 8604.53 ng eq. of Compound 1/g or mL. For the same molecule, the Radioactivity concentration ([3]; Heart, 6 h) was 912.54 ng eq. of Compound 1/g or mL, the Radioactivity concentration ([3]; Heart, 24 h) was 105.78 ng eq. of Compound 1/g or mL and the Radioactivity concentration ([3]; Heart, 72 h) was 10.01 ng eq. of Compound 1/g or mL. For the same molecule, the Radioactivity concentration ([3]; Kidney, 5 min) was 13230.64 ng eq. of Compound 1/g or mL, the Radioactivity concentration ([3]; Kidney, 6 h) was 2138.26 ng eq. of Compound 1/g or mL and the Radioactivity concentration ([3]; Kidney, 24 h) was 264.55 ng eq. of Compound 1/g or mL. For the same molecule, the Radioactivity concentration ([3]; Kidney, 72 h) was 31.5 ng eq. of Compound 1/g or mL, the Radioactivity concentration ([3]; Kidney, 168 h) was 12.02 ng eq. of Compound 1/g or mL and the Radioactivity concentration ([3]; Liver, 5 min) was 29518.18 ng eq. of Compound 1/g or mL. For the same molecule, the Radioactivity concentration ([3]; Liver, 6 h) was 3033.96 ng eq. of Compound 1/g or mL, the Radioactivity concentration ([3]; Liver, 24 h) was 740.19 ng eq. of Compound 1/g or mL and the Radioactivity concentration ([3]; Liver, 72 h) was 180.72 ng eq. of Compound 1/g or mL. The Radioactivity concentration ([3]; Liver, 168 h) was 48.2 ng eq. of Compound 1/g or mL, the Radioactivity concentration ([3]; Lung, 5 min) was 7645.96 ng eq. of Compound 1/g or mL and the Radioactivity concentration ([3]; Lung, 6 h) was 1247.84 ng eq. of Compound 1/g or mL. The Radioactivity concentration ([3]; Lung, 24 h) was 175.43 ng eq. of Compound 1/g or mL and the Radioactivity concentration ([3]; Lung, 72 h) was 33.55 ng eq. of Compound 1/g or mL.
